{"source": "patent US20140315972A1", "about": "“RS)-2-(2-oxo-4-phenylpyrrolidin-1-yl)acetamide compound having modulatory activity with a commensurate effect, pharmaceutical substance (variants) and its application, composition (variants) thereof” (priority 2011, published 2014)", "key": {"mice [1]": {"tested_on": "mice", "details": "mice; product of SU No 797219; cited from earlier work"}, "rabbits": {"tested_on": "rabbits", "experiment": "Transcallosal stimulation induced potential (TSIP)", "type": "in vivo", "details": "for effect on TSIP components (in words): 25-300 mg/kg"}, "mice [2]": {"tested_on": "mice", "experiment": "Cross maze exploratory behavior, HEF and LEF mice", "type": "in vivo", "details": "i.p. once a day 5 days, Compounds 1 and 4 100 mg/kg, Piracetam 200 mg/kg"}, "mice [3]": {"tested_on": "mice", "experiment": "Acute toxicity, single intraperitoneal injection in male mice", "type": "in vivo", "details": "male mice 18-24 g; single i.p.", "procedure": "(§1) Tables 2, 2.1 and 2.2 present the results of acute toxicity studies of the Compounds with active substance content in at least white outbred male mice (body weight 18-24 g) and white outbred rats 30-35 days of age, of both sexes with a single dose. Calculation of toxic doses was made using the Wilcoxon and Litchfield method. Observations were made over 24 hours and 14 days after a single dose.\n(§2) LD50 in rat pups after intragastric administration was not found. Intragastric administration to rat pups of doses of more than 1000 mg/kg is technically impossible due to the small volume of the stomach (Table 2.2)."}, "[4]": {"experiment": "Acute toxicity, single intraperitoneal injection in male mice", "type": "in vivo", "details": "male, white outbred, mouse, in vivo, ip, male mice 18-24 g; single i.p.", "procedure": "as §1, §2"}, "rats": {"tested_on": "rats", "experiment": "Acute toxicity, single intragastric administration in immature rats", "type": "in vivo", "details": "single intragastric 800 mg/kg", "procedure": "as §1, §2"}, "[5]": {"details": "Piracetam 300-500, Pyritinol 50-150, Phenotropil 25-300 mg/kg"}}, "note": "Read-outs that look alike come from different tables or passages of the source.", "data": [{"smiles": "NC(=O)CN1CC(c2ccccc2)CC1=O", "note": "(stereo not drawn) [N-carbamoylmethyl-4-phenyl-2-pyrrolidone, reference compound]", "values": [{"measurement": "LD50", "setting": "mice [1]", "result": 831, "unit": "mg/kg"}]}, {"smiles": "NC(=O)CN1CC(c2ccccc2)CC1=O", "note": "(racemic) [Compound 4, (RS)-2-(2-oxo-4-phenylpyrrolidin-1-yl)acetamide]", "values": [{"measurement": "effect on TSIP components (in words)", "setting": "rabbits", "result": "no significant difference from the saline treated control"}, {"measurement": "Kt (trigger transmission coefficient)", "setting": "mice [2]; HEF mice", "result": "3.9 ± 0.45"}, {"measurement": "Number of compartment explorations", "setting": "mice [2]; HEF mice", "result": "6.5 ± 0.7 //"}, {"measurement": "Number of surveillances", "setting": "mice [2]; HEF mice", "result": "1.6 ± 0.2"}, {"measurement": "Kt (trigger transmission coefficient)", "setting": "mice [2]; LEF mice", "result": "3.9 ± 0.4"}, {"measurement": "Number of compartment explorations", "setting": "mice [2]; LEF mice", "result": "7.0 ± 0.6 //"}, {"measurement": "Number of surveillances", "setting": "mice [2]; LEF mice", "result": "1.8 ± 0.2"}, {"measurement": "Kt (trigger transmission coefficient)", "setting": "mice [2]; population as a whole", "result": "3.9 ± 0.45"}, {"measurement": "Number of compartment explorations", "setting": "mice [2]; population as a whole", "result": "6.7 ± 0.7 //"}, {"measurement": "Number of surveillances", "setting": "mice [2]; population as a whole", "result": "1.7 ± 0.2"}, {"measurement": "LD50", "setting": "mice [3]", "result": 904, "unit": "mg/kg"}]}, {"smiles": "NC(=O)CN1CC(c2ccccc2)CC1=O", "note": "(racemic) [Compound 2, (RS)-2-(2-oxo-4-phenylpyrrolidin-1-yl)acetamide]", "values": [{"measurement": "effect on TSIP components (in words)", "setting": "rabbits", "result": "less pronounced than that of Compounds 1 and 3"}, {"measurement": "TSIP P1 + N1 amplitude", "setting": "rabbits; [5]", "result": "± (biphasic effect, less than 50% but not less than 20%)"}, {"measurement": "TSIP component N1 amplitude", "setting": "rabbits; [5]", "result": "± (biphasic effect, less than 50% but not less than 20%)"}, {"measurement": "TSIP component P1 amplitude", "setting": "rabbits; [5]", "result": "± (biphasic effect, less than 50% but not less than 20%)"}, {"measurement": "TSIP component P2 amplitude", "setting": "rabbits; [5]", "result": "± (biphasic effect, less than 50% but not less than 20%)"}, {"measurement": "LD50 at 14 days", "setting": "[4]", "result": 1000, "unit": "mg/kg"}]}, {"smiles": "NC(=O)CN1CC(c2ccccc2)CC1=O", "note": "(racemic) [Compound 3, (RS)-2-(2-oxo-4-phenylpyrrolidin-1-yl)acetamide]", "values": [{"measurement": "Dead/total number", "setting": "rats; rats 30-35 days", "result": "0/10"}, {"measurement": "% of dead rat pups", "setting": "rats", "result": 0, "unit": "%"}, {"measurement": "LD50", "setting": "mice [3]", "result": "1050 (984.6-1115.3) mg/kg"}]}]}
